Values joined by “and” are separate entries in the source; they are usually repeats but may differ in a detail not shown here. Equal values may be shown once. Toxic doses and inconclusive results are not listed. Rule as the data show it: active = T/C of 150% or more; inactive = T/C below 125%.
Tested on: L1210 leukemia ip in BDF1 mice, survival T/C
Experiment: NCI In Vivo Anticancer Drug Screen. Data for tumor model L1210 Leukemia (intraperitoneal) in B6D2F1 (BDF1) mice
Details: endpoint: mean survival time, higher = longer survival
How it was run: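 Transplanted-tumor mice were given test agent; controls received vehicle only. Survival readings from the two groups were divided (treated over control).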

[1] = dose: 50.0 mg/kg/injection, schedule: Q01DX001 (ip), vehicle: carboxymethylcellulose (CMC)
[2] = dose: 100.0 mg/kg/injection, schedule: Q01DX001 (ip), vehicle: carboxymethylcellulose (CMC)
[3] = dose: 200.0 mg/kg/injection, schedule: Q01DX001 (ip), vehicle: carboxymethylcellulose (CMC)
[4] = dose: 400.0 mg/kg/injection, schedule: Q01DX001 (ip), vehicle: carboxymethylcellulose (CMC)
[5] = dose: 100.0 mg/kg/injection, schedule: Q04DX003 (ip), vehicle: saline with Tween-80
[6] = dose: 200.0 mg/kg/injection, schedule: Q04DX003 (ip), vehicle: saline with Tween-80
[7] = dose: 400.0 mg/kg/injection, schedule: Q04DX003 (ip), vehicle: saline with Tween-80
[8] = dose: 100.0 mg/kg/injection, schedule: Q01DX009 (ip), vehicle: saline with Tween-80
[9] = dose: 200.0 mg/kg/injection, schedule: Q01DX009 (ip), vehicle: saline with Tween-80
[10] = dose: 400.0 mg/kg/injection, schedule: Q01DX009 (ip), vehicle: saline with Tween-80
[11] = dose: 100.0 mg/kg/injection, schedule: Q04DX002 (ip), vehicle: Klucel (hydroxypropylcellulose) (HPC)
[12] = dose: 200.0 mg/kg/injection, schedule: Q04DX002 (ip), vehicle: Klucel (hydroxypropylcellulose) (HPC)

Measured: T/C

Fc1cc(N(CCCl)CCCl)ccc1CN1CCCN(Cc2ccc(N(CCCl)CCCl)cc2F)C1c1ccc(N(CCCl)CCCl)cc1Cl
inactive: [1] 105 % of control | [2] 96 % of control | [3] 100 % of control | [4] 102 % of control

COc1ccc(/C(C#N)=C2C=C/C(=N\O)C(C)=C/2Cl)cc1
inactive: [1] 109 % of control | [2] 96 % of control | [5] 92 % of control | [3] 93 % of control | [6] 106 % of control | [4] 91 % of control | [7] 97 % of control

[O-][n+]1onc2c(-c3ccccc3)nnc(-c3ccccc3)c21
inactive: [5] 108 % of control | [6] 110 % of control | [7] 111 % of control

N#CC1C2CCC(C2)C1CCCNCCCC1C2CCC(C2)C1C#N (stereo unspecified)
inactive: dose: 100.0 mg/kg/injection, schedule: Q04DX002 (ip), vehicle: saline 97 % of control | dose: 200.0 mg/kg/injection, schedule: Q04DX002 (ip), vehicle: saline 104 % of control

CCOC(=O)c1ccc(Nc2sc(C(=O)c3ccc(Br)cc3)c(N)c2C#N)cc1
inactive: dose: 100.0 mg/kg/injection, schedule: Q04DX002 (ip), vehicle: saline with Tween-80 102 % of control | dose: 200.0 mg/kg/injection, schedule: Q04DX002 (ip), vehicle: saline with Tween-80 94 % of control | dose: 400.0 mg/kg/injection, schedule: Q04DX002 (ip), vehicle: saline with Tween-80 88 % of control

Cc1ccc(S(=O)(=O)Nc2cccc3c(NS(=O)(=O)c4ccc(C)cc4)cccc23)cc1
inactive: [8] 96 % of control | [9] 94 % of control | [10] 100 % of control

O=C(Nc1ccc(Cl)cc1)NC1CC1
inactive: dose: 62.5 mg/kg/injection, schedule: Q01DX009 (ip), vehicle: saline with Tween-80 91 % of control | dose: 125.0 mg/kg/injection, schedule: Q01DX009 (ip), vehicle: saline with Tween-80 90 % of control | dose: 250.0 mg/kg/injection, schedule: Q01DX009 (ip), vehicle: saline with Tween-80 95 % of control

CCS(=O)(=O)/C=C/c1ccc2ccccc2n1
inactive: [11] 104 % of control | [12] 100 % of control

CCOc1c(Cl)cc(Cl)cc1C(c1ccc(Cl)cc1S(=O)(=O)O)c1cc(Cl)cc(Cl)c1OCC
inactive: [5] 89 % of control

Cc1cccc(C(=O)NN)n1
inactive: dose: 12.5 mg/kg/injection, schedule: Q01DX009 (ip), vehicle: saline 94 % of control | dose: 25.0 mg/kg/injection, schedule: Q01DX009 (ip), vehicle: saline 105 % of control

O=C(O)CC(C(=O)O)(c1c[nH]c2ccccc12)c1c[nH]c2ccccc12
inactive: dose: 75.0 mg/kg/injection, schedule: Q01DX001 (ip), vehicle: carboxymethylcellulose (CMC) 89 % of control | dose: 150.0 mg/kg/injection, schedule: Q01DX001 (ip), vehicle: carboxymethylcellulose (CMC) 93 % of control | dose: 300.0 mg/kg/injection, schedule: Q01DX001 (ip), vehicle: carboxymethylcellulose (CMC) 90 % of control

Cn1c(Cc2ccccc2)c(-c2ccccc2)c(-c2ccccc2)c1Cc1ccccc1
inactive: dose: 75.0 mg/kg/injection, schedule: Q01DX001 (ip), vehicle: saline 94 % of control | dose: 150.0 mg/kg/injection, schedule: Q01DX001 (ip), vehicle: saline 88 % of control | dose: 300.0 mg/kg/injection, schedule: Q01DX001 (ip), vehicle: saline 93 % of control

O=C(Oc1ccc(Cl)cc1Cl)c1ccccc1
inactive: [8] 110 % of control | [5] 98 % of control | [9] 110 % of control | [6] 96 % of control | [10] 113 % of control | [7] 101 % of control

O=C(O)CC(CS(=O)O)C(=O)O (stereo unspecified)
inactive: dose: 100.0 mg/kg/injection, schedule: Q01DX001 (ip), vehicle: saline with Tween-80 91 % of control

CCCC(C#N)(c1ccccc1)c1ccccc1
inactive: dose: 100.0 mg/kg/injection, schedule: Q01DX001 (ip), vehicle: Klucel (hydroxypropylcellulose) (HPC) 97 % of control | dose: 100.0 mg/kg/injection, schedule: Q01DX009 (ip), vehicle: Klucel (hydroxypropylcellulose) (HPC) 95 % of control | dose: 100.0 mg/kg/injection, schedule: Q04DX003 (ip), vehicle: Klucel (hydroxypropylcellulose) (HPC) 91 % of control | dose: 200.0 mg/kg/injection, schedule: Q01DX001 (ip), vehicle: Klucel (hydroxypropylcellulose) (HPC) 92 % of control | dose: 200.0 mg/kg/injection, schedule: Q01DX009 (ip), vehicle: Klucel (hydroxypropylcellulose) (HPC) 95 % of control | dose: 200.0 mg/kg/injection, schedule: Q04DX003 (ip), vehicle: Klucel (hydroxypropylcellulose) (HPC) 104 % of control | dose: 400.0 mg/kg/injection, schedule: Q01DX001 (ip), vehicle: Klucel (hydroxypropylcellulose) (HPC) 102 % of control | dose: 400.0 mg/kg/injection, schedule: Q04DX003 (ip), vehicle: Klucel (hydroxypropylcellulose) (HPC) 94 % of control

Cc1ccc(S(=O)(=O)N/N=C/C=C/C=N/NS(=O)(=O)c2ccc(C)cc2)cc1
inactive: [11] 97 % of control | [12] 103 % of control | dose: 400.0 mg/kg/injection, schedule: Q04DX002 (ip), vehicle: Klucel (hydroxypropylcellulose) (HPC) 94 % of control

S=C(S)NCCNC(=S)S
inactive: [5] 93 % of control | dose: 100.0 mg/kg/injection, schedule: Q04DX003 (ip), vehicle: saline 95 % of control | [6] 90 % of control | dose: 200.0 mg/kg/injection, schedule: Q04DX003 (ip), vehicle: saline 97 % of control | [7] 87 % of control | dose: 400.0 mg/kg/injection, schedule: Q04DX003 (ip), vehicle: saline 101 % of control

COc1ccc(C2(C)C(C#N)C(=O)NC(=O)C2C#N)cc1 (stereo unspecified)
inactive: dose: 100.0 mg/kg/injection, schedule: Q01DX001 (ip), vehicle: saline 98 % of control | dose: 200.0 mg/kg/injection, schedule: Q01DX001 (ip), vehicle: saline 122 % of control | dose: 400.0 mg/kg/injection, schedule: Q01DX001 (ip), vehicle: saline 104 % of control

C1CCC2[N-]CC3CCCCC3[N-]CC3CCCCC3[N-]CC3CCCCC3[N-]CC2C1.CO.[Co+3] (stereo unspecified)
inactive: [11] 110 % of control | [12] 103 % of control

CCOC(=O)c1cc(Cl)cc(C(=O)OCC)n1
inactive: [8] 111 % of control | [9] 107 % of control | [10] 102 % of control

OCCOc1cc(Cl)c(Cl)cc1Cl
inactive: dose: 25.0 mg/kg/injection, schedule: Q04DX003 (ip), vehicle: carboxymethylcellulose (CMC) 95 % of control | dose: 50.0 mg/kg/injection, schedule: Q01DX009 (ip), vehicle: carboxymethylcellulose (CMC) 93 % of control and 102 % of control | dose: 50.0 mg/kg/injection, schedule: Q04DX003 (ip), vehicle: carboxymethylcellulose (CMC) 101 % of control | dose: 100.0 mg/kg/injection, schedule: Q01DX009 (ip), vehicle: carboxymethylcellulose (CMC) 101 % of control and 103 % of control | [8] 103 % of control | dose: 100.0 mg/kg/injection, schedule: Q04DX002 (ip), vehicle: carboxymethylcellulose (CMC) 102 % of control and 103 % of control | dose: 100.0 mg/kg/injection, schedule: Q04DX003 (ip), vehicle: carboxymethylcellulose (CMC) 95 % of control | [9] 87 % of control | dose: 200.0 mg/kg/injection, schedule: Q04DX002 (ip), vehicle: carboxymethylcellulose (CMC) 103 % of control

CC1=C/C(O)CC(=O)Cc2nc(co2)C(=O)N2CCC=C2C(=O)OC(C(C)C)C(C)/C=C\C(=O)NC/C=C\1 (stereo unspecified)
inactive: dose: 0.5 micrograms/kg/injection, schedule: Q01DX009 (ip), vehicle: saline 95 % of control | dose: 1.0 micrograms/kg/injection, schedule: Q01DX009 (ip), vehicle: saline 93 % of control | dose: 2.0 micrograms/kg/injection, schedule: Q01DX009 (ip), vehicle: saline 104 % of control | dose: 4.0 micrograms/kg/injection, schedule: Q01DX009 (ip), vehicle: saline 104 % of control

From PubChem BioAssay AID248 (DTP/NCI, 2004)
